Data reported in patent publication US11311552B2, “Therapies for cancer” (PROXIMAGEN, LLC, priority 2015, dated 2022).

How the values were obtained:
Assay type in all cases: in vivo
[1] = test system: haematopoietic stem cells (HSCs) and progenitor cells (CFU-GEMM); experiment: mobilisation of haematopoietic progenitor cells in mice (FIG. 1); conditions: assessed 1 hour later, vs vehicle
Experimental: FIG. 1 is a graph showing the degree of mobilisation of haematopoietic stem cells (HSCs) and progenitor cells (CFU-GEMM) in mice following injection of vehicle, AMD3100 (5 mg/kg) and 6-{4-[1-(Propan-2-yl)piperidin-4-yl]-1,4-diazepan-1-yl}-N-(pyridin-4-yl)pyridine-2-carboxamide (30 mg/kg).
In the experiment represented by FIG. 1, groups of 5 mice were injected with vehicle, AMD3100 (5 mg/kg) or injected sub cutaneously with 6-{4-[1-(Propan-2-yl)piperidin-4-yl]-1,4-diazepan-1-yl}-N-(pyridin-4-yl)pyridine-2-carboxamide (30 mg/kg) and the mobilisation of haematopoietic progenitor cells assessed 1 hour later. The data are expressed for the multipotential GEMM cells as colony forming units per ml of peripheral blood.

[2] = test system: human glioblastoma cell line (T98G); experiment: T98G subcutaneous xenograft growth in nude mice (FIG. 2, 3)
Experimental: The solid line represents the control (i.e. untreated). The data in FIG. 2 are presented as % of the tumours progressing in groups of 8-10 mice, where progression is defined as a 20% increase in tumour volume. Tumour volume was determined by measuring the width and depth of the tumour with calipers, and then calculating the volume. […] After 15 days all of the control mice had progressed, whereas none of the mice treated with 6-{4-[1-(Propan-2-yl)piperidin-4-yl]-1,4-diazepan-1-yl}-N-(pyridin-4-yl)pyridine-2-carboxamide had done so. Inhibition of growth of human glioblastoma cell line (T98G) in nude mice is expected to be predictive of a beneficial therapeutic outcome in human cancer patients, including patients suffering from glioblastoma and astrocytoma.
After the subcutaneous tumours had grown to at least 120 mm^3 the mice were randomised into groups and treated with temozolomide (16 mg/kg po daily for 5 days) and 6-{4-[1-(Propan-2-yl)piperidin-4-yl]-1,4-diazepan-1-yl}-N-(pyridin-4-yl)pyridine-2-carboxamide (50 mg/kg, once per day by oral gavage, for 5 days every week, dotted line).
The data are presented in FIG. 3 as % of the tumours progressing in groups of 8-10 mice, where progression is defined as a 20% increase in tumour volume.

[3] = test system: human glioblastoma cell line (U87MG); experiment: orthotopic (intracranial) U87MG tumours in nude mice: survival and time to progression by luminescence (FIG. 4-10)
Experimental: The experiments represented by FIGS. 4, 5, and 6 had the same control (i.e. vehicle only), and therefore the same control data. For improved clarity, the line representing the control data has been removed from FIGS. 5 and 6, but retained in FIG. 4.
Nude mice were immobilized on a stereotaxic apparatus and anaesthetized. The operative field was prepared with betadine. A small hole was made at 1.0 mm anterior and 2 mm lateral to the exposed bregma. A sterile 5 μL Hamilton syringe with a 26 gauge needle was inserted at a depth of 3.0 mm from the skull surface and withdrawn by 0.5 mm to inject 3×10^3 U87MG cells in a volume of 3 μL. The injection rate was set up to 1 μL/min. After the implantation of the tumour cells, the needle was left in place for 5 min to prevent reflux. The needle was then completely withdrawn from the brain over the course of […] (1.0 mm/min), and the skin was sutured. Just before treatment initiation (5 days after injection), animals were randomized to treatment groups of 10 mice each. A small amount of cells was chosen (3×10^3) to simulate a chemo-radiotherapic treatment made after surgery in which a low number of tumour cells remain in the operatory bed, re-grow and give arise to a recurrence. Treatments were started 5 days after cell injection when no luciferase activity was detectable intracranially, and continued for 35 days. Time to progression (i.e. detection of luminescence) was assessed, and the mice followed for up to 180 days. […] The y axis parameter ‘survival’ is the percentage of mice not yet euthanized. The y axis parameter ‘probability of detection’ is the percentage of mice having a tumour that has progressed to the stage where luminescence is detected.
The following dosage administrations were used: 6-{4-[1-(Propan-2-yl)piperidin-4-yl]-1,4-diazepan-1-yl}-N-(pyridin-4-yl)pyridine-2-carboxamide was dosed at 50 mg/kg po once daily. Bevacizumab was dosed at 4 mg/kg iv every 4 days. Temozolomide was dosed at 32 mg/kg po daily. Sunitinib was dosed at 40 mg/kg po daily. Radiotherapy consisted of 3×2Gy daily.
For this experiment, 5×10^3 U87MG cells were injected using the technique described above. Following injection of the U87MG cells, tumours were detectable in the mice, which were treated for 28 days.

Compound | mobilisation of HSCs from the mouse bone marrow (CFU-GEMM, colony forming units per ml of peripheral blood) ([1]; 5 mg/kg, P<0.05) | mice with tumour progression (20% increase in tumour volume) after 15 days ([2]; 50 mg/kg once per day by oral gavage, 5 days every week, all control mice had progressed) | growth of T98G subcutaneous xenografts compared to control ([2]; alone, 50 mg/kg once per day by oral gavage, 5 days every week) | anti-tumour efficacy on T98G subcutaneous xenografts (% of tumours progressing) ([2]; combination: 50 mg/kg po once per day 5 days every week + temozolomide 16 mg/kg po daily for 5 days) | delay of tumour growth (probability of detection), HR ([3]; alone, 50 mg/kg po once daily, p<0.001, FIG. 9A/9B) | delay of growth of the tumour to a size detectable through luminescence, H.R. ([3]; alone, 50 mg/kg po once daily, to vehicle, FIG. 8A/8B) | survival, HR ([3]; combination with Bevacizumab 4 mg/kg iv every 4 days, 50 mg/kg po once daily, vs vehicle, p=0.002, FIG. 4) | time taken for progression of tumours (detection by luminescence), HR ([3]; combination with Bevacizumab 4 mg/kg iv every 4 days, vs vehicle, p=0.0001, FIG. 8A) | survival, HR ([3]; combination with Sunitinib 40 mg/kg po daily, 50 mg/kg po once daily, vs vehicle, p=0.2, FIG. 7) | time taken for progression of tumours (detection by luminescence), HR ([3]; combination with Sunitinib 40 mg/kg po daily, vs vehicle, p=0.0001, FIG. 8B) | survival, HR ([3]; combination with Temozolomide 32 mg/kg po daily, 50 mg/kg po once daily, vs Temozolomide alone, p=0.02, FIG. 5) | survival, HR ([3]; combination with irradiation and temozolomide, 5x10^3 U87MG cells, tumours detectable, treated for 28 days, p=0.025, FIG. 10) | survival, HR ([3]; combination with radiotherapy 3x2Gy daily, 50 mg/kg po once daily, vs radiotherapy alone, p=0.0002, FIG. 6) | delay of tumour growth (probability of detection), HR ([3]; irradiation (3x2Gy daily) alone vs combination with irradiation, p=0.0001, FIG. 9A) | delay of tumour growth (probability of detection), HR ([3]; temozolomide (32 mg/kg po daily) alone vs combination with temozolomide, p=0.01, FIG. 9B) | mobilisation of HSCs from the mouse bone marrow (CFU-GEMM, colony forming units per ml of peripheral blood) ([1]; 30 mg/kg sub cutaneously)
c1cc(CN2CCCNCCNCCCNCC2)ccc1CN1CCCNCCNCCCNCC1 [AMD3100, reference compound] | significantly greater than that caused by vehicle |  |  |  |  |  |  |  |  |  |  |  |  |  |  | 
CC(C)N1CCC(N2CCCN(c3cccc(C(=O)Nc4ccncc4)n3)CC2)CC1 [6-{4-[1-(Propan-2-yl)piperidin-4-yl]-1,4-diazepan-1-yl}-N-(pyridin-4-yl)pyridine-2-carboxamide] |  | none | inhibits the growth | synergistic | 3.7 | 3.5 | 3.4 | 9.7 | 1.6 | 5.3 | 2.8 | 2.3 | 4.0 | 4.6 | 2.9 | does not result in significant mobilisation
